Data: ChEMBL document CHEMBL3351946, “Design and synthesis of potent antitumor water-soluble phenyl N-mustard-benzenealkylamide conjugates via a bioisostere approach” (Eur J Med Chem, 2014)
Activity calls are given as the source filed them. The rule behind the calls is not given here.

What was measured:
[1] = Cytotoxicity against human DLD1 cells assessed as growth inhibition after 72 hrs by Alamar Blue assay; format: functional, cell-based; conditions: DLD-1, 72 h
[2] = test system: HT-29; experiment: Cytotoxicity against human HT-29 cells assessed as growth inhibition after 72 hrs by Alamar Blue assay; format: functional, cell-based; conditions: HT-29, 72 h
[3] = Cytotoxicity against human H3347 cells assessed as growth inhibition after 72 hrs by Alamar Blue assay; format: functional, cell-based; conditions: H3347, 72 h
[4] = Cytotoxicity against human H1299 cells assessed as growth inhibition after 72 hrs by Alamar Blue assay; format: functional, cell-based; conditions: NCI-H1299, 72 h
[5] = test system: CCRF-CEM; experiment: Resistance factor, ratio of IC50 for vinblastine-resistant human CCRF-CEM cells to IC50 for human CCRF-CEM cells; format: functional
[6] = Cytotoxicity against human H460 cells assessed as growth inhibition after 72 hrs by Alamar Blue assay; format: functional, cell-based; conditions: NCI-H460, 72 h
[7] = test system: CCRF-CEM; experiment: Cytotoxicity against human CCRF-CEM cells assessed as growth inhibition after 72 hrs by Alamar Blue assay; format: functional, cell-based
[8] = test system: CCRF-CEM; experiment: Cytotoxicity against vinblastine-resistant human CCRF-CEM cells assessed as growth inhibition after 72 hrs by Alamar Blue assay; format: functional, cell-based
[9] = Cytotoxicity against human HCT116 cells assessed as growth inhibition after 72 hrs by Alamar Blue assay; format: functional, cell-based; conditions: HCT-116, 72 h
[10] = Cytotoxicity against human PC3 cells assessed as growth inhibition after 72 hrs by Alamar Blue assay; format: functional, cell-based; conditions: PC-3, 72 h
[11] = Antitumor activity against human HCT116 cells xenografted in nude mouse assessed as tumor growth inhibition at 30 mg/kg,iv qd administered for 6 days measured on day 13 relative to control; format: functional, HCT-116
[12] = test system: Mus musculus; experiment: Toxicity in nude mouse xenografted with human HCT116 cells assessed as body weight loss at 30 mg/kg,iv qd administered for 6 days measured on day 13 relative to control; format: organism-based, HCT-116; set-up: dose 30 mg/kg; conditions: in vivo, 144 h
[13] = Antitumor activity against human HCT116 cells xenografted in nude mouse assessed as tumor growth inhibition at 30 mg/kg,iv qd administered for 6 days measured on day 30 relative to control; format: functional; conditions: HCT-116, iv, read-out: TGI
[14] = test system: Mus musculus; experiment: Toxicity in nude mouse xenografted with human HCT116 cells assessed as change in body weight at 30 mg/kg,iv qd administered for 6 days measured on day 30 relative to control; format: organism-based, HCT-116; set-up: dose 30 mg/kg; conditions: in vivo, 144 h
[15] = test system: HCT-116; experiment: Antitumor activity against human HCT116 cells xenografted in nude mouse assessed as survival at 30 mg/kg,iv qd administered for 6 days; format: functional, organism-based; set-up: dose 30 mg/kg
[16] = Induction of pEGFP-N1 DNA (unknown origin) interstand crosslinking after 2 hrs by alkaline agarose gel shift assay
[17] = test system: H3347; experiment: Antitumor activity against human H3347 cells xenografted in nude mouse assessed as survival at 30 mg/kg,iv qd administered for 6 days; format: functional, organism-based; set-up: dose 30 mg/kg
[18] = Antitumor activity against human H3347 cells xenografted in nude mouse assessed as tumor growth inhibition at 30 mg/kg,iv qd administered for 6 days measured on day 31 relative to control; format: functional; conditions: read-out: TGI
[19] = test system: Mus musculus; experiment: Toxicity in nude mouse xenografted with human H3347 cells assessed as change in body weight at 30 mg/kg,iv qd administered for 6 days measured on day 31 relative to control; format: organism-based; set-up: dose 30 mg/kg; conditions: in vivo, 144 h
[20] = Antitumor activity against human HCT116 cells xenografted in nude mouse assessed as tumor growth inhibition at 30 mg/kg,iv qd administered for 6 days measured on day 31 relative to control; format: functional; conditions: HCT-116, iv, read-out: TGI
[21] = Antitumor activity against human H3347 cells xenografted in nude mouse assessed as tumor growth inhibition at 30 mg/kg,iv qd administered for 6 days measured on day 16 relative to control; format: functional
[22] = test system: Mus musculus; experiment: Toxicity in nude mouse xenografted with human HCT116 cells assessed as change in body weight at 30 mg/kg,iv qd administered for 6 days measured on day 31 relative to control; format: organism-based, HCT-116; set-up: dose 30 mg/kg; conditions: in vivo, 144 h
[23] = test system: Mus musculus; experiment: Toxicity in nude mouse xenografted with human H3347 cells assessed as body weight loss at 30 mg/kg,iv qd administered for 6 days; format: organism-based; set-up: dose 30 mg/kg; conditions: in vivo, 144 h
[24] = Antitumor activity against human HCT116 cells xenografted in nude mouse assessed as tumor growth inhibition at 30 mg/kg,iv qd administered for 6 days measured on day 15 relative to control; format: functional, HCT-116
[25] = test system: Mus musculus; experiment: Toxicity in nude mouse xenografted with human PC3 cells assessed as change in body weight at 40 mg/kg,iv administered every 2 days for 5 doses measured on day 38 relative to control; format: organism-based, PC-3; set-up: dose 40 mg/kg; conditions: in vivo, 48 h
[26] = Antitumor activity against human PC3 cells xenografted in nude mouse assessed as tumor growth inhibition at 40 mg/kg,iv administered every 2 days for 5 doses measured on day 38 relative to control; format: functional; conditions: PC-3, iv, read-out: TGI
[27] = test system: Mus musculus; experiment: Toxicity in nude mouse xenografted with human H460 cells assessed as body weight loss at 30 mg/kg,iv qd administered for 6 days measured on day 37 relative to control; format: organism-based; set-up: dose 30 mg/kg; conditions: in vivo, 144 h
[28] = test system: Mus musculus; experiment: Toxicity in nude mouse xenografted with human PC3 cells assessed as body weight loss at 40 mg/kg,iv administered every 2 days for 5 doses measured on day 13 relative to control; format: organism-based, PC-3; set-up: dose 40 mg/kg; conditions: in vivo, 48 h
[29] = test system: Mus musculus; experiment: Toxicity in nude mouse xenografted with human H460 cells assessed as body weight loss at 30 mg/kg,iv qd administered for 6 days measured on day 15 relative to control; format: organism-based; set-up: dose 30 mg/kg; conditions: in vivo, 144 h
[30] = test system: NCI-H460; experiment: Antitumor activity against human H460 cells xenografted in nude mouse assessed as survival at 30 mg/kg,iv qd administered for 6 days; format: functional, organism-based; set-up: dose 30 mg/kg
[31] = Toxicity in mouse; format: organism-based; conditions: in vivo
[32] = Antitumor activity against human H460 cells xenografted in nude mouse assessed as tumor growth inhibition at 30 mg/kg,iv qd administered for 6 days measured on day 15 relative to control; format: functional, NCI-H460
[33] = Antitumor activity against human H460 cells xenografted in nude mouse assessed as tumor growth inhibition at 30 mg/kg,iv qd administered for 6 days measured on day 37 relative to control; format: functional; conditions: NCI-H460, iv, read-out: TGI
[34] = Acute toxicity in iv dosed mouse administered for 14 days; format: organism-based; conditions: in vivo
[35] = Antitumor activity against human PC3 cells xenografted in nude mouse assessed as tumor growth inhibition at 40 mg/kg,iv administered every 2 days for 5 doses measured on day 28 to 31 relative to control; format: functional, PC-3

Row | Structure (SMILES) | IC50 [1] | IC50 [2] | IC50 [3] | IC50 [4] | Ratio IC50 [5] | IC50 [6] | IC50 [7] | IC50 [8] | IC50 [9] | IC50 [10] | also measured
1 | O=c1[nH]cc(F)c(=O)[nH]1 [FLUOROURACIL] | 29.1 µM | 24.9 µM | 11.6 µM | – | – | – | – | – | – | – | –
2 | O=C(CN1CCCC1)Nc1ccc(NC(=O)Nc2ccc(N(CCCl)CCCl)cc2)cc1 | 4.37 µM | 12.3 µM | 1.53 µM | 3.41 µM | 7.69 | 0.95 µM | 0.26 µM | 2 µM | 1.33 µM | 3.52 µM | –
3 | O=C(CN1CCCCC1)Nc1ccc(NC(=O)Nc2ccc(N(CCCl)CCCl)cc2)cc1 | 4.53 µM | 11.8 µM | 1.16 µM | 2.52 µM | 4.68 | 1.05 µM | 0.31 µM | 1.45 µM | 0.99 µM | 2.24 µM | –
4 | CCN(CC)CCC(=O)Nc1ccc(NC(=O)Nc2ccc(N(CCCl)CCCl)cc2)cc1 | 7.82 µM | 19.3 µM | 1.03 µM | 10.3 µM | 27.57 | 1.83 µM | 0.3 µM | 8.27 µM | 3.08 µM | 2.47 µM | –
5 | CN(C)CCC(=O)Nc1ccc(NC(=O)Nc2ccc(N(CCCl)CCCl)cc2)cc1 | 9.84 µM | 23.6 µM | 2.86 µM | – | – | – | – | – | – | – | –
6 | CN(C)CC(=O)Nc1ccc(NC(=O)Nc2ccc(N(CCCl)CCCl)cc2)cc1 | 5.76 µM | 20.1 µM | 1.53 µM | 5.36 µM | 4.62 | 1.21 µM | 0.29 µM | 1.34 µM | 0.85 µM | 7.33 µM | %max [11]: 72%; body weight change relative to control [12]: -3%; inhibition in vivo at 30 mg/kg [13]: 51%; Activity [14]: 3%; Activity [15]: Active; Activity [16]: Dose-dependent effect
7 | O=C(CCN1CCCCC1)Nc1ccc(NC(=O)Nc2ccc(N(CCCl)CCCl)cc2)cc1 | 6.5 µM | 12.3 µM | 2.41 µM | 3.03 µM | – | 1.58 µM | – | 6.2 µM | 2.41 µM | 2.28 µM | –
8 | O=C(Nc1ccc(C(=O)NCCN2CCCC2)cc1)Nc1ccc(N(CCCl)CCCl)cc1 | – | – | – | 18.5 µM | 237.2 | 17.8 µM | 0.56 µM | 133 µM | 6.48 µM | 4.53 µM | –
9 | O=C(CN1CCCC1)Nc1cccc(NC(=O)Nc2ccc(N(CCCl)CCCl)cc2)c1 | – | – | – | 9.36 µM | 0.28 | 6.55 µM | 3.41 µM | 0.97 µM | 5.41 µM | 12.8 µM | –
10 | CCc1c2c(nc3ccc(OC(=O)N4CCC(N5CCCCC5)CC4)cc13)-c1cc3c(c(=O)n1C2)COC(=O)[C@]3(O)CC [IRINOTECAN] | 25.1 µM | 82.8 µM | 7.53 µM | – | – | – | – | – | – | – | Activity [17]: Active; inhibition in vivo at 30 mg/kg [18]: 90%; Activity [19]: 8%; body weight change relative to control [12]: -3%; Activity [15]: Active; inhibition in vivo at 30 mg/kg [20]: 85%; %max [21]: 90%; Activity [22]: 8%; %max [23]: 0%; %max [24]: 92%
11 | O=C(CN1CCOCC1)Nc1ccc(NC(=O)Nc2ccc(N(CCCl)CCCl)cc2)cc1 | – | – | – | 18.6 µM | 16.27 | 4.74 µM | 1.13 µM | 18.4 µM | 6.67 µM | 16 µM | –
12 | CN(C)CCNC(=O)c1cccc(NC(=O)Nc2ccc(N(CCCl)CCCl)cc2)c1 | – | – | – | 14.8 µM | 0.85 | 38.3 µM | – | 1.05 µM | 4.85 µM | 17.6 µM | Activity [25]: -2%; inhibition in vivo at 40 mg/kg [26]: 89%; Activity [27]: -6%; body weight change relative to control [12]: -7%; %max [28]: -16%; %max [29]: -16%; Activity [15]: Active; Activity [30]: Active; inhibition in vivo at 30 mg/kg [20]: 79%; MTD [31]: 30 mg/kg; Activity [22]: 0%; %max [32]: 17%; inhibition in vivo at 30 mg/kg [33]: 8%; LD50 at 336 h [34]: 76 mg/kg; %max [35]: 94%; %max [24]: 81%
13 | CN(C)CCC(=O)Nc1cccc(NC(=O)Nc2ccc(N(CCCl)CCCl)cc2)c1 | – | – | – | 8.99 µM | 27.67 | 16.8 µM | 0.52 µM | 14.4 µM | 3.28 µM | 13.5 µM | –
14 | CCN(CC)CC(=O)Nc1cccc(NC(=O)Nc2ccc(N(CCCl)CCCl)cc2)c1 | – | – | – | 11.7 µM | 0.69 | 5.67 µM | 2.01 µM | 1.38 µM | 4.62 µM | 13 µM | –
15 | O=C(CCN1CCCC1)Nc1ccc(NC(=O)Nc2ccc(N(CCCl)CCCl)cc2)cc1 | 13.9 µM | 14.1 µM | 3.68 µM | 6.43 µM | 61.14 | 1.03 µM | 0.28 µM | 17.1 µM | 2.87 µM | 3.48 µM | –
16 | O=C(CN1CCC(N2CCCCC2)CC1)Nc1ccc(NC(=O)Nc2ccc(N(CCCl)CCCl)cc2)cc1 | – | – | – | 14.4 µM | 45.8 | 14.9 µM | 1.14 µM | 52.2 µM | 4.24 µM | 7.24 µM | –
17 | O=C(CN1CCCCC1)Nc1cccc(NC(=O)Nc2ccc(N(CCCl)CCCl)cc2)c1 | – | – | – | 8.55 µM | 0.99 | 5.62 µM | 1.35 µM | 1.33 µM | 7.5 µM | 10.1 µM | –
18 | O=C(CCN1CCOCC1)Nc1cccc(NC(=O)Nc2ccc(N(CCCl)CCCl)cc2)c1 | – | – | – | 15.9 µM | 1.56 | 38.5 µM | 3.1 µM | 4.84 µM | 16.8 µM | 35.5 µM | –
